Consider one compound from PMC5468338, “Novel Class IIa-Selective Histone Deacetylase Inhibitors Discovered Using an in Silico Virtual Screening Approach” (Scientific Reports, 2017).

The structures appear in SMILES notation.

The target in this test is HDAC4 (Homo sapiens, UniProt P56524). The test can be described thus: HDAC fluorometric activity assay, HDAC4. The note with it: tested at 40 μM, SAHA as reference.
Chain of HDAC4 (P56524 whole entry): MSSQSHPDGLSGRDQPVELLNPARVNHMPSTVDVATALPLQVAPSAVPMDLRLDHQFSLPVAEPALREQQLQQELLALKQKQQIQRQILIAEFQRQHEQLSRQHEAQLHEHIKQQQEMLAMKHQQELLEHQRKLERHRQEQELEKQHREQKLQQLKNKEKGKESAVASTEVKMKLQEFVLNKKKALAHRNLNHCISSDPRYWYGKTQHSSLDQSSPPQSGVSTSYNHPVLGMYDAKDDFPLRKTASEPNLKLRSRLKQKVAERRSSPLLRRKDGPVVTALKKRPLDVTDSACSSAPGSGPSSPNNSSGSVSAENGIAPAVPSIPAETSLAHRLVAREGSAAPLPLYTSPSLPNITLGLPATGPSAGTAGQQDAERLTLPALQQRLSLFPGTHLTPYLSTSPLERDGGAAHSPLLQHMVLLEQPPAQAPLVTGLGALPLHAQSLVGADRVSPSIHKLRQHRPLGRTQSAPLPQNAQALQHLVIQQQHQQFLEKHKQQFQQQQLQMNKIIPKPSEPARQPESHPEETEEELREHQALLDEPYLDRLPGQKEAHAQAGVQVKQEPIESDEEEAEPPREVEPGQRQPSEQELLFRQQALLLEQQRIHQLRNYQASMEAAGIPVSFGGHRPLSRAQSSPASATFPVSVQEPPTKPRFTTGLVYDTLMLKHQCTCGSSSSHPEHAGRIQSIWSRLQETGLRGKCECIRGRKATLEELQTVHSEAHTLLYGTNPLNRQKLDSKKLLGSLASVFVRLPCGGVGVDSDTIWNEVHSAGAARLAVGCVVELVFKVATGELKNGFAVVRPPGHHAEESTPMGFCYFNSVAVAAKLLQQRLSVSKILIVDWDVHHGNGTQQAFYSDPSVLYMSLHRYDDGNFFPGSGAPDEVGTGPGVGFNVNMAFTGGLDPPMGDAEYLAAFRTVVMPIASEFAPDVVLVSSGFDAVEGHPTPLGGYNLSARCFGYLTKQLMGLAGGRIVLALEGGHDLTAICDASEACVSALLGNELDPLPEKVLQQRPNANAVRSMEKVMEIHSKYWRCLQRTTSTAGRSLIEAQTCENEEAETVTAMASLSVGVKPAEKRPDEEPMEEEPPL

Text: A fluorogenic based assay[54] was used to validate the 40 candidate compounds.

On to `O=C(C=Cc1ccc(O)c(O)c1)c1ccc(O)c(O)c1O` [Compound A93087], for which the “HDAC4 inhibitory activity in initial screen compared to SAHA” value is reported as “significantly higher inhibitory activities”.
